The record followed here is PMC4774911, “Biochemical Screening of Five Protein Kinases from Plasmodium falciparum against 14,000 Cell-Active Compounds” (PLoS ONE, 2016).

Broadly, the IC50 is the point on the concentration scale where inhibition reaches its midpoint.

Targets include AAK1 (Homo sapiens, UniProt Q2M2I8); CABC1 (Homo sapiens, UniProt Q8NI60); CDC2 (Homo sapiens, UniProt P06493); CSNK1E (Homo sapiens, UniProt P49674); MAPK14 (Homo sapiens, UniProt Q16539); MAPK8 (Homo sapiens, UniProt P45983); MELK (Homo sapiens, UniProt Q14680); OXSR1 (Homo sapiens, UniProt O95747); PRKACB (Homo sapiens, UniProt P22694); STK39 (Homo sapiens, UniProt Q9UEW8).
Test in all cases: biochemical
In the next assay the target is T1, MAP3K7 (Homo sapiens, UniProt O43318).
T1 sequence (O43318 1-606): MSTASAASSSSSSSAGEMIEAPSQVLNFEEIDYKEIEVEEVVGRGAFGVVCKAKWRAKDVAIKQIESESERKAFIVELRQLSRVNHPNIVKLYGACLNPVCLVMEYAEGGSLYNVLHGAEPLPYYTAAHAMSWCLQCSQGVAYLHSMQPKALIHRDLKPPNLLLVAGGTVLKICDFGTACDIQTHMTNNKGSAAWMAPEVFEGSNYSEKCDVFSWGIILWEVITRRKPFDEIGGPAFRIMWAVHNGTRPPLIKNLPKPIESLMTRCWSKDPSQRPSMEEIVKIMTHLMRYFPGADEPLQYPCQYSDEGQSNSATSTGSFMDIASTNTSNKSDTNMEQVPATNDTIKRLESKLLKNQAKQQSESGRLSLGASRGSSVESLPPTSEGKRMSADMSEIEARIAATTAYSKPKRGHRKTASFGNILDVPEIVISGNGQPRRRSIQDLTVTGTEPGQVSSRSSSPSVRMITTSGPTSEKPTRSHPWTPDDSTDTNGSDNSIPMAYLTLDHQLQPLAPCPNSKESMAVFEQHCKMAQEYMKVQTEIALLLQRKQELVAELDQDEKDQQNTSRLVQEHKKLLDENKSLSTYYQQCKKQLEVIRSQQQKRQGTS

The target of the next assay is T2, PRKD3 (Homo sapiens, UniProt O94806).
T2 sequence (O94806 1-890): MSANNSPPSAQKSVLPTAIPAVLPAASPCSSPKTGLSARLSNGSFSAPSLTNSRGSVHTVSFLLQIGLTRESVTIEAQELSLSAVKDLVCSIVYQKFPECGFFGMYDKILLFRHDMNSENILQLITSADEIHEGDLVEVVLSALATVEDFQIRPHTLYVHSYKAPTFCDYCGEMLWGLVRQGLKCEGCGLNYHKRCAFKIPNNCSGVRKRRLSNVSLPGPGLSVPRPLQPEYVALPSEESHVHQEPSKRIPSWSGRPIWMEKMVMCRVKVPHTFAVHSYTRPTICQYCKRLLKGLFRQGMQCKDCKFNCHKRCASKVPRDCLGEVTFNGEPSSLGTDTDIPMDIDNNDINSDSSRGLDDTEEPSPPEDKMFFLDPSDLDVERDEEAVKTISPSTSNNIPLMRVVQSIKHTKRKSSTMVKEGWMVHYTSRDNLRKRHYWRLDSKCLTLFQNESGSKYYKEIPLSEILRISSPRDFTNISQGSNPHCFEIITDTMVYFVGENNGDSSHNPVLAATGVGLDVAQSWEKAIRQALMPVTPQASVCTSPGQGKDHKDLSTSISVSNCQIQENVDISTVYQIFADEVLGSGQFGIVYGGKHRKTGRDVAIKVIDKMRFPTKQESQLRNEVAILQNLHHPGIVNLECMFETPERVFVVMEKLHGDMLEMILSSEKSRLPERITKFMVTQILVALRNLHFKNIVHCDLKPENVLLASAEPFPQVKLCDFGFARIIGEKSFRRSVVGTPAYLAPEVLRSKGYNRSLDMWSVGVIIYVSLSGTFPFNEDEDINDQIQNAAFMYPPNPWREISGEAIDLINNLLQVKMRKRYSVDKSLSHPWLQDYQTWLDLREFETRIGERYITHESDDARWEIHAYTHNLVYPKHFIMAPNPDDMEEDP

In the next assay the target is T3, STRADA (Homo sapiens, UniProt Q7RTN6).
T3 sequence (Q7RTN6 1-431): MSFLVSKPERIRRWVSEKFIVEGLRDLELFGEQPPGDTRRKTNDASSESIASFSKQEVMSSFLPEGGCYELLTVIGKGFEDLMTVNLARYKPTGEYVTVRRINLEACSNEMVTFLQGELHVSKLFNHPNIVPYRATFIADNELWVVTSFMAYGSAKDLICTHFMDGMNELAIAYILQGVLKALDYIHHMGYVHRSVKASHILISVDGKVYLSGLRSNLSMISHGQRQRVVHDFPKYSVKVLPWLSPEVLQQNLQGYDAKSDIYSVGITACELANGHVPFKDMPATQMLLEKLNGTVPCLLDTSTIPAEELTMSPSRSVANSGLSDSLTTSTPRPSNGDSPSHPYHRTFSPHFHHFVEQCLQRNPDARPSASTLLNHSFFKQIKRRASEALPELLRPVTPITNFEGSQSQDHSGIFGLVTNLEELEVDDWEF

In a further assay the target is T4, TP53RK (Homo sapiens, UniProt Q96S44).
T4 sequence (Q96S44 1-253): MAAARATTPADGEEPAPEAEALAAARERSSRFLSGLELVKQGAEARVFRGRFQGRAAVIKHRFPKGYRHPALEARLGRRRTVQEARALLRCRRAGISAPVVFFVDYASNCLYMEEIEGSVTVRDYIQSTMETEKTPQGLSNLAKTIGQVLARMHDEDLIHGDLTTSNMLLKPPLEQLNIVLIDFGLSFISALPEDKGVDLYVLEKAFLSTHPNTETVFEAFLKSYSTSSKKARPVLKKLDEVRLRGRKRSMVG

Several values for one entry are separate records, joined by “and”; a condition that tells them apart may be missing. Identical values can stand only once.

Sequence of CDC2 (P06493 whole entry): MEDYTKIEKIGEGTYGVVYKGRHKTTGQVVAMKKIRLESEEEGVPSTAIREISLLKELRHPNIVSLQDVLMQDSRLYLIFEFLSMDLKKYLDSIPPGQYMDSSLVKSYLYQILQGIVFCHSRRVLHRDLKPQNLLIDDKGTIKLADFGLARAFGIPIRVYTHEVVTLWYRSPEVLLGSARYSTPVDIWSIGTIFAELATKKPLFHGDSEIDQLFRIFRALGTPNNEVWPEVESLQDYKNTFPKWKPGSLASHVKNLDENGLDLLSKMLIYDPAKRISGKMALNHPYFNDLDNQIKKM
Sequence of MELK (Q14680 whole entry): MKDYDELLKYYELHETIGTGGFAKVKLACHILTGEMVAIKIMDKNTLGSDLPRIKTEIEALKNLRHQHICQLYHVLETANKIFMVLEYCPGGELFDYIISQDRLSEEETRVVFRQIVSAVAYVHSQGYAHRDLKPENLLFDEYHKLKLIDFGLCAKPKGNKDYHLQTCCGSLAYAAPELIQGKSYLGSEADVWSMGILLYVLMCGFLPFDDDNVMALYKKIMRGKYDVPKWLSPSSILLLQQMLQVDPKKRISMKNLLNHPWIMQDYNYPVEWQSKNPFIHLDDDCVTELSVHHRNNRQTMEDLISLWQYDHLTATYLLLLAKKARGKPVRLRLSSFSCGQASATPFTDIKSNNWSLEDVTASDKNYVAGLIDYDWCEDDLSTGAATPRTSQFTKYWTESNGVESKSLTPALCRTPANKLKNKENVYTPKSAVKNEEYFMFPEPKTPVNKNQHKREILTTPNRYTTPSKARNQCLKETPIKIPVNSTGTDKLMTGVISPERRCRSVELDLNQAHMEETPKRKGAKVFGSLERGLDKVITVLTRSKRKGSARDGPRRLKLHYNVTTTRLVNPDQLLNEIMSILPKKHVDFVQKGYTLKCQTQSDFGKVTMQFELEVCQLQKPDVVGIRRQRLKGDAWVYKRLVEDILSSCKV
Sequence of OXSR1 (O95747 whole entry): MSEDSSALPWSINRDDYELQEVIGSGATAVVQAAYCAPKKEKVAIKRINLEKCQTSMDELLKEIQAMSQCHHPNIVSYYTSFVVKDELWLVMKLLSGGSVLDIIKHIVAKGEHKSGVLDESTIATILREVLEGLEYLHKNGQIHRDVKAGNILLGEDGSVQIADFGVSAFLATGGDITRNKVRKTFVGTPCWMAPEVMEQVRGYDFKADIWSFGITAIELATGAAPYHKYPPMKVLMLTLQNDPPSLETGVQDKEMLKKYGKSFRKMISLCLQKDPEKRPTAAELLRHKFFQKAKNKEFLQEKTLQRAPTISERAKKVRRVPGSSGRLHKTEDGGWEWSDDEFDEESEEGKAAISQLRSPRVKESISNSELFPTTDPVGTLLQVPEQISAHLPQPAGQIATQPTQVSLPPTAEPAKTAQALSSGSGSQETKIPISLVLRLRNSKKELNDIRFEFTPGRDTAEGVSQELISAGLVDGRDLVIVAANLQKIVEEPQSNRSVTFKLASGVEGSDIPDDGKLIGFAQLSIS
Sequence of MAPK14 (Q16539 whole entry): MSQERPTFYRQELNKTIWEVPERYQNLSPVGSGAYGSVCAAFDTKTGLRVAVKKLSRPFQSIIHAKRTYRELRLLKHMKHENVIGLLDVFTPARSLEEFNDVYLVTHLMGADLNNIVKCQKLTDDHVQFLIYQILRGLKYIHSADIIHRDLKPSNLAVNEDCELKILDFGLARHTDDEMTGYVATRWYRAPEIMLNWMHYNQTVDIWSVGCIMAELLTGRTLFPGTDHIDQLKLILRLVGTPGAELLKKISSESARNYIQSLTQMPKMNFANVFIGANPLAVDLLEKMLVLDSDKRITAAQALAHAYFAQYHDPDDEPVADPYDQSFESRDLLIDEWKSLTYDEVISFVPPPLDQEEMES
Sequence of CABC1 (Q8NI60 whole entry): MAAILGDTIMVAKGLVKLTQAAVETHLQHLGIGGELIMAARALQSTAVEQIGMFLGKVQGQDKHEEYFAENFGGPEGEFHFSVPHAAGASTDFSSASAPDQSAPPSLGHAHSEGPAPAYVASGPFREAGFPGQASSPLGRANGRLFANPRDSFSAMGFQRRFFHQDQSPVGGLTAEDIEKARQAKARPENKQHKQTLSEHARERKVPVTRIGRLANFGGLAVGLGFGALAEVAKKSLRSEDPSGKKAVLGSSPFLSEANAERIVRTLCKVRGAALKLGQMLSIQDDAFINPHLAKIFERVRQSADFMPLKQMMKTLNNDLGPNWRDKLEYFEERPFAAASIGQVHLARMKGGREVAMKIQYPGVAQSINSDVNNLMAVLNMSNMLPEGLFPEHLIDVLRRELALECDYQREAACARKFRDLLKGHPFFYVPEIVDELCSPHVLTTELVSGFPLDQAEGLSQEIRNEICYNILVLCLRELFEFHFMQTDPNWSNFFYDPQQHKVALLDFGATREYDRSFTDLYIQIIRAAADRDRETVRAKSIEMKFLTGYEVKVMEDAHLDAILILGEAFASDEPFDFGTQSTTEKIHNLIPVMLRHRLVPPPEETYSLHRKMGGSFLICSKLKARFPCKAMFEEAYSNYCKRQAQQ
Sequence of MAPK8 (P45983 whole entry): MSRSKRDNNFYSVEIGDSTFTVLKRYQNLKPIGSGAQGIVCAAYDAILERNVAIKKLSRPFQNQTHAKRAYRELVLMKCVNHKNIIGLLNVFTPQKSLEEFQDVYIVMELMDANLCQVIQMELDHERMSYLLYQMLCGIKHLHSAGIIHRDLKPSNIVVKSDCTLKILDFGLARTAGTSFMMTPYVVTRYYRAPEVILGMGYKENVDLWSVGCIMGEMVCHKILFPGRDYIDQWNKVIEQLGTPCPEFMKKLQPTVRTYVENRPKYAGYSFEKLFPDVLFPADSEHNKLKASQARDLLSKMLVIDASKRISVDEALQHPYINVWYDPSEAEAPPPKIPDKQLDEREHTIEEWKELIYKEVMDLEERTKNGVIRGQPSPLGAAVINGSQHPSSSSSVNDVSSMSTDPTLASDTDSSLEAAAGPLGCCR
Sequence of CSNK1E (P49674 whole entry): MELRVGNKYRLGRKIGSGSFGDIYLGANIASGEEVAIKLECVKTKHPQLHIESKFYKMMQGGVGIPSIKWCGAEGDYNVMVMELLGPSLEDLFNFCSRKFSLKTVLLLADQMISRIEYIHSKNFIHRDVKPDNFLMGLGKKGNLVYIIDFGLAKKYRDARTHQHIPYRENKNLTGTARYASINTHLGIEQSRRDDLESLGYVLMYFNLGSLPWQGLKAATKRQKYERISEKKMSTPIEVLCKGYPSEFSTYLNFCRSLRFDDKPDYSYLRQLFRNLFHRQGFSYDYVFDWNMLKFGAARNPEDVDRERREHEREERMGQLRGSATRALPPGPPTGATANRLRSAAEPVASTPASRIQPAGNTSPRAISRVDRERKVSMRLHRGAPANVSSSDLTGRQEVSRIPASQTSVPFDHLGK
Sequence of AAK1 (Q2M2I8 whole entry): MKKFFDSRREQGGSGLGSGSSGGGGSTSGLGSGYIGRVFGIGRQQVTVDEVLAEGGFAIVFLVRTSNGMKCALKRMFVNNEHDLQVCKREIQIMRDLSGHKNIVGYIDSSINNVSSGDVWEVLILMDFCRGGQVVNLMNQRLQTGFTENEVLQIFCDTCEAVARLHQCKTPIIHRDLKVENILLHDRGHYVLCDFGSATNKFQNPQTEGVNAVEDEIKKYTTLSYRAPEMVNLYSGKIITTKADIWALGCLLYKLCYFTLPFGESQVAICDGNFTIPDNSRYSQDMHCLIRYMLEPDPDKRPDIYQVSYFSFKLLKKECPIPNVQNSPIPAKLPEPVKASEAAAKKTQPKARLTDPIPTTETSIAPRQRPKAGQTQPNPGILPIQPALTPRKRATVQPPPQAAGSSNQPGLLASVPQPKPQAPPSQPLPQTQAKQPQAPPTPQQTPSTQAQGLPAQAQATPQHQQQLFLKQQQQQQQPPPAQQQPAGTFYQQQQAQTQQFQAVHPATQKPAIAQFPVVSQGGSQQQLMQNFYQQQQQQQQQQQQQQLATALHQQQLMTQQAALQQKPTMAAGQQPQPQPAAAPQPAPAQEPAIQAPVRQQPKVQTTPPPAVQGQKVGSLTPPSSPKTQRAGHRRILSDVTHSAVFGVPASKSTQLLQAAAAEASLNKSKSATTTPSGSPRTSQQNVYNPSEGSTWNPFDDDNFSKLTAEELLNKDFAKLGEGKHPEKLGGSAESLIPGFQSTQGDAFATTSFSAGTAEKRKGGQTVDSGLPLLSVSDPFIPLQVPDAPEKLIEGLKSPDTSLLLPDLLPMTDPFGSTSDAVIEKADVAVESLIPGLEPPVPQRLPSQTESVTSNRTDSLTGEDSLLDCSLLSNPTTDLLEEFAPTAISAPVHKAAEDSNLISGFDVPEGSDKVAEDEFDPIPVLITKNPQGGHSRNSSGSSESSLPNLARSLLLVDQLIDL

On to `CN1CCN(c2ccc(Nc3ncc(C#N)c(Nc4ccccc4C(N)=O)n3)cc2)CC1.Cl` [TCMDC-134116], for which the IC50 was 0.19 µM at AAK1; over 20 µM on CABC1; 1.5 µM at CDC2; 1.6 µM and 4.1 µM at CSNK1E; 2 µM and 1.1 µM against MAP3K7; over 20 µM against MAPK14. Further, the IC50 is 1.5 µM and 5.1 µM against MAPK8; 0.36 µM and 0.35 µM on MELK; 0.081 µM and 0.13 µM at OXSR1; 6.3 µM at PRKACB; 0.37 µM at PRKD3; 0.067 µM against STK39. Further, the IC50 against STRADA is over 20 µM; against TP53RK it was 4 µM.
As to `Cl.NCC1(c2nc(-c3ccc(Cl)c(O)c3)c(-c3ccncc3)[nH]2)CCCCC1` [TCMDC-141154], the IC50 is over 20 µM at AAK1; over 20 µM at CABC1; over 20 µM on CDC2; 0.33 µM against CSNK1E; over 20 µM at MAP3K7; at most 0.032 µM at MAPK14. In addition, the IC50 is over 20 µM against MAPK8; 4.7 µM and 4.5 µM at MELK; over 20 µM against OXSR1; 0.89 µM against PRKACB; 8.7 µM against PRKD3; over 20 µM on STK39. The IC50 against STRADA and against TP53RK was over 20 µM in each case.
Regarding `CN(C)CC(O)COc1ccc(Nc2ncc([N+](=O)[O-])c(Nc3ccccc3O)n2)cc1.O=C(O)C(F)(F)F` (stereo not drawn) [TCMDC-141399], the IC50 against AAK1, at CABC1, at CDC2, against CSNK1E, against MAP3K7 and on MAPK14 was over 20 µM throughout. The IC50 on MAPK8 was over 20 µM; on MELK it was over 20 µM; on OXSR1 it was over 20 µM; against PRKACB, over 20 µM; at PRKD3, 9.1 µM and 7.6 µM; against STK39 it was 5.5 µM. Further, the IC50 against STRADA and against TP53RK was over 20 µM in each case.
